# Measurements taken from patent US7829114B2, “Capsules containing aqueous fill compositions stabilized with derivatized cyclodextrin” (CyDex Pharmaceuticals, Inc., priority 2002, dated 2010).
# Counter-ions that a name gives are not always drawn.
# Experiments:
# [1] = Clarity / appearance of fill composition; format: physicochemical; settings: normal dose of drug in 1 gram
# Excerpt: (§1) Agitation continued until all the SAE-CD dissolved.
# Clarity of the fill compositions herein can be determined by visual inspection; however, other known methods for determining the clarity of a fill composition can be performed. Exemplary other methods include transmittance spectrophotometry at a wavelength of 800 nm.
# [2] = Shell stability toward aqueous fill composition, statements on soft gelatin capsules; format: physicochemical; settings: for stability provided to capsules: about ≧60% wt.
# [3] = Water activity measurement; format: physicochemical; settings: for Water Activity (approximate values): about 20-25° C.
# Description: Without being held bound to a particular mechanism, it is believed that the increasing the concentration of derivatized cyclodextrin present in the aqueous fill composition results in reduced water activity for the fill composition. The table below provides a summary of water activity versus concentration of cyclodextrin derivatives or some shell-stabilizing materials in water at about 20-25° C., or ambient temperature.
# The values detailed above are approximate and can vary from instrument to instrument. These values were determined according to the procedure described herein on a water activity meter described herein. The numbers can also vary within the standard deviation of a particular instrument. It is also possible for the numbers to vary according to the accuracy and reproducibility of the instrument used as well as the method for calibrating the instrument with solution standards of known water activity.
# Water activity was measured by placing a sample solution in a small, sealed container and determining the equilibrium humidity and temperature in the container. Instruments such as the HygroLab 3 from Rotronic Instrument Corp. , Huntington, N.Y. were used to measure the water activity. The humidity is determined using a thin film capacitive sensor in the headspace of the container. The temperature is determined using a Pt RTD 100 sensor. From these measurements the activity of water (Aw) is calculated by the instrument. The instrument has an accuracy of about ±0.015 Aw and a repeatability of about ±0.005 Aw. Carefully prepared salt-containing stock solutions of known concentration and water activity were used to calibrate the instrument prior to use.
# [4] = Shell stability on exposure to aqueous fill composition (half-shell integrity test, H.S.I.T.); format: physicochemical; settings: HFC
# Description: (§2) The same tests were performed on gelatin capsules obtained from CARDINAL HEALTH.
# It has been discovered that PEG has a beneficial effect upon the shell-stabilizing property of an aqueous fill composition comprising SAE-CD. FIG. 6a depicts a ternary graph correlating the concentration of SAE-CD, water and PEG in a fill composition to the H.S.I.T. rating of a soft shell capsule exposed to the fill composition. Aqueous fill solutions comprising differing amounts of PEG, SAE-CD and water were prepared. The stability tests were conducted as described below. The HFC soft gelatin capsules described herein were used. For a composition comprising 40% wt. SBE-CD, 40% wt. water and 20% wt. PEG, the shell was stable for greater than 5 days. For a composition comprising 35% wt. SBE-CD, 35% wt. water and 30% wt. PEG, the shell was stable for greater than 5 days. For a composition comprising 18% wt. SBE-CD, 42% wt. water and 40% wt. PEG, the shell was stable for greater than 5 days. Under each of the conditions tested, the control sample excluded SAE-CD, i.e., containing only water and PEG at the indicated concentration, and failed within 24 hours. About the same results were obtained for the HFB (FIG. 6b), LFB (FIG. 7a) and LFC (FIG. 7b) soft gelatin capsules. Increasing the SAE-CD concentration to values higher than those indicated further increases the shelf-life of the shell or provides an HSIT rating of at least 4. Stabilized aqueous fill composition-containing capsule formulations can be achieved with each capsule if the following fill compositions are used.
# [5] = as above; format: physicochemical; settings: HFB
# Excerpt: as §1
# [6] = as above; format: physicochemical; settings: LFC
# Description: as §2
# [7] = as above; settings: LFB
# Description: A study was conducted to determine whether or not complexation of a drug to the SAE-CD alters the ability of the SAE-CD to stabilize the capsule shell against dissolution, erosion, swelling or degradation caused by water in the fill composition enclosed within the capsule shell. Banner's hydrophilic, HFB, and lipophilic, LFB, air fill size 35 oval gelatin capsules were used in this study, which was performed as described below. […] The SAE-CD was slowly added to the water while it was stirring and on a hot plate. Agitation continued until all the SAE-CD dissolved. The SAE-CD was divided by weighing in equal amounts into nine vials (one for each drug). […] The amount of drug added produced a composition that contained a normal dose of drug in 1 gram. The vials were agitated and heated until a solution was obtained or the active was uniformly suspended. […]
# Method A: Half-Shell integrity Test (H.S.I.T.)
# In a closed container, a portion of a capsule shell is exposed to an aqueous fill composition comprising a known amount of derivatized cyclodextrin, water and optionally one or more other excipients. Observation of changes, or lack thereof, on the exposed portion's size, appearance, shape, dissolution, erosion, degradation, hardness, and/or translucence are recorded periodically over time. A rating scale is used to quantify the overall performance of the capsule portion during the test.
# [8] = 40% wt. cyclodextrin derivative in water
# [9] = 50% wt. cyclodextrin derivative in water
# [10] = 60% wt. cyclodextrin derivative in water
# [11] = 70% wt. cyclodextrin derivative in water
compound,measurement,setting,value
C[C@]12CCC(=O)C=C1CC[C@@H]1[C@@H]2CC[C@@]2(C)[C@H]1CC[C@]2(C)O [Methyltestosterone],Fill composition appearance,[1]; 60% w/w SAE-CD,clear solution
same,Fill composition appearance,[1]; 70% w/w SAE-CD,clear solution
CC(C)(C(=O)O)c1ccc(C(O)CCCN2CCC(C(O)(c3ccccc3)c3ccccc3)CC2)cc1 (centres unmarked) [Fexofenadine HCl],Fill composition appearance,[1]; 60% w/w SAE-CD,solution
same,Fill composition appearance,[1]; 70% w/w SAE-CD,clear solution
"Dimethylcyclodextrin [DMCD, reference compound]",effect on stability of the shell,"[2]; about 42% wt., maximum achievable concentration, FIG. 2",only slightly increased the stability of the shell
same,ability to stabilize soft gelatin capsules from water in the fill composition,"[2]; at saturation concentration in water, FIG. 4",unable to stabilize
same,water activity,"[3]; 43% wt. in water, the approximate saturation concentration",approximately 0.996
C[C@]12CCC(=O)C=C1CC[C@@H]1[C@@H]2[C@@H](O)C[C@@]2(C)[C@H]1CC[C@]2(O)C(=O)CO [Hydrocortisone],Fill composition appearance,[1]; 60% w/w SAE-CD,clear solution
same,Fill composition appearance,[1]; 70% w/w SAE-CD,clear solution
hydroxypropyl cyclodextrin [HP-CD],Increase in shell size,[4]; [8],>3 × × original
same,Observations,[4]; [8],Deformed
same,Time for failure,[4]; [8],2 days
same,Increase in shell size,[4]; [9],2 × × original
same,Observations,[4]; [9],shape intact
same,Time for failure,[4]; [9],4 days
same,Increase in shell size,[4]; [10],2 × × original
same,Observations,[4]; [10],Slight deformity
same,Time for failure,[4]; [10],7 days
same,Increase in shell size,[4]; [11],1.5 × × original
same,Observations,[4]; [11],Shape intact
same,Time for failure,[4]; [11],14 days
same,Increase in shell size,[5]; [8],>3 × × original
same,Observations,[5]; [8],Deformed
same,Time for failure,[5]; [8],2 days
same,Increase in shell size,[5]; [9],2 × × original
same,Observations,[5]; [9],shape intact
same,Time for failure,[5]; [9],4 days
same,Increase in shell size,[5]; [10],2 × × original
same,Observations,[5]; [10],Shape intact
same,Time for failure,[5]; [10],7 days
same,Increase in shell size,[5]; [11],1.5 × × original
same,Observations,[5]; [11],Shape intact
same,Time for failure,[5]; [11],14 days
same,shelf-life of soft gelatin capsules,[2]; 60% wt. or more based upon total weight of water and HP-CD,at least one week
same,stability provided to capsules,"[2]; LFB and LFC soft gelatin capsules as printed, FIG. 2",at least one week stability
same,stability provided to capsules,"[2]; LFB and LFC soft gelatin capsules, FIG. 1",at least a one-week stability
same,Water Activity (approximate values),[3]; 10 % w/w in water,~0.99
same,Water Activity (approximate values),[3]; 20 % w/w in water,~0.99
same,Water Activity (approximate values),[3]; 30 % w/w in water,~0.98
same,Water Activity (approximate values),[3]; 40 % w/w in water,~0.98
same,Water Activity (approximate values),[3]; 50 % w/w in water,~0.97
same,Water Activity (approximate values),[3]; 60 % w/w in water,~0.94
same,Water Activity (approximate values),[3]; 70 % w/w in water,~0.93
same,Increase in shell size,[6]; [8],>3 × × original
same,Observations,[6]; [8],Deformed
same,Time for failure,[6]; [8],2 days
same,Increase in shell size,[6]; [9],2 × × original
same,Observations,[6]; [9],Shape intact
same,Time for failure,[6]; [9],4 days
same,Increase in shell size,[6]; [10],2 × × original
same,Observations,[6]; [10],Slight deformity
same,Time for failure,[6]; [10],7 days
same,Increase in shell size,[6]; [11],1.5 × × original
same,Observations,[6]; [11],Shape intact
same,Time for failure,[6]; [11],14 days
same,Increase in shell size,[7]; [8],>3 × × original
same,Observations,[7]; [8],Deformed
same,Time for failure,[7]; [8],2 days
same,Increase in shell size,[7]; [9],2 × × original
same,Observations,[7]; [9],shape intact
same,Time for failure,[7]; [9],4 days
same,Increase in shell size,[7]; [10],2 × × original
same,Observations,[7]; [10],Shape intact
same,Time for failure,[7]; [10],7 days
same,Increase in shell size,[7]; [11],1.5 × × original
same,Observations,[7]; [11],Shape intact
same,Time for failure,[7]; [11],14 days
C[C@]12CC[C@H]3[C@@H](CCC4=CC(=O)CC[C@@]43C)[C@@H]1CC[C@@H]2O [Testosterone],Fill composition appearance,[1]; 60% w/w SAE-CD,clear solution
same,Fill composition appearance,[1]; 70% w/w SAE-CD,clear solution
COc1ccccc1OCCNCC(O)COc1cccc2[nH]c3ccccc3c12 (centres unmarked) [Carvedilol],Fill composition appearance,[1]; 60% w/w SAE-CD,solution
same,Fill composition appearance,[1]; 70% w/w SAE-CD,clear solution
COc1ccc2c(c1)c(CC(=O)O)c(C)n2C(=O)c1ccc(Cl)cc1 [Indomethacin],Fill composition appearance,[1]; 60% w/w SAE-CD,solution
same,Fill composition appearance,[1]; 70% w/w SAE-CD,clear solution
C(=C\c1ccccc1)/CN1CCN(C(c2ccccc2)c2ccccc2)CC1 [Cinnarizine],Fill composition appearance,[1]; 60% w/w SAE-CD,suspension
same,Fill composition appearance,[1]; 70% w/w SAE-CD,suspension
CN[C@H]1CC[C@@H](c2ccc(Cl)c(Cl)c2)c2ccccc21 [Sertraline HCl],Fill composition appearance,[1]; 60% w/w SAE-CD,solution
same,Fill composition appearance,[1]; 70% w/w SAE-CD,clear solution
